The source made the active and inactive calls. The rule behind the calls is not given here.

This series deals with CCRIS mutagenicity, Ames/micronucleus/aberration tests. The series is described as follows: CCRIS mutagenicity studies.
The mark [1] stands for this setting: Test System: AMES SALMONELLA TYPHIMURIUM, Strain/Indicator: TA100, Metabolic Activation: NONE, Method: STANDARD PLATE.
Setting [2] is: Test System: AMES SALMONELLA TYPHIMURIUM, Strain/Indicator: TA98, Metabolic Activation: NONE, Method: PREINCUBATION
Where [3] appears, read: Test System: AMES SALMONELLA TYPHIMURIUM, Strain/Indicator: TA100, Metabolic Activation: NONE, Method: PREINCUBATION
[4] abbreviates: Test System: AMES SALMONELLA TYPHIMURIUM, Strain/Indicator: TA1535, Metabolic Activation: NONE, Method: PREINCUBATION

Consider `CN(C)CCCNc1c2ccccc2nc2ccc([N+](=O)[O-])cc12`, for which the mutagenic call was “active; positive” (Test System: AMES SALMONELLA TYPHIMURIUM, Strain/Indicator: TA98(1,8-DNP6), Metabolic Activation: NONE, Method: STANDARD PLATE); “active; positive” (Test System: AMES SALMONELLA TYPHIMURIUM, Strain/Indicator: TA98(1,8-DNP6), Metabolic Activation: RAT, LIVER, S-9, Method: STANDARD PLATE); “active; positive” (Test System: AMES SALMONELLA TYPHIMURIUM, Strain/Indicator: TA98(NR), Metabolic Activation: NONE, Method: STANDARD PLATE); “active; positive” (Test System: AMES SALMONELLA TYPHIMURIUM, Strain/Indicator: TA98(NR), Metabolic Activation: RAT, LIVER, S-9, Method: STANDARD PLATE); “active; positive” (Test System: AMES SALMONELLA TYPHIMURIUM, Strain/Indicator: TA98, Metabolic Activation: NONE, Method: STANDARD PLATE); “active; positive” (Test System: AMES SALMONELLA TYPHIMURIUM, Strain/Indicator: TA98, Metabolic Activation: RAT, LIVER, S-9, Method: STANDARD PLATE). Also, the mutagenic call is “active; positive” under setting [1]; “active; positive” (Test System: AMES SALMONELLA TYPHIMURIUM, Strain/Indicator: TA1535, Metabolic Activation: NONE, Method: STANDARD PLATE); “active; positive” (Test System: AMES SALMONELLA TYPHIMURIUM, Strain/Indicator: TA1537, Metabolic Activation: NONE, Method: STANDARD PLATE); “active; positive” (Test System: AMES SALMONELLA TYPHIMURIUM, Strain/Indicator: TA1537 PKM101, Metabolic Activation: NONE, Method: STANDARD PLATE); “active; positive” (Test System: AMES SALMONELLA TYPHIMURIUM, Strain/Indicator: TA1538, Metabolic Activation: NONE, Method: STANDARD PLATE); “inactive; negative” (Test System: CHINESE HAMSTER V-79, Strain/Indicator: V-79/6-THIOGUANINE, Metabolic Activation: NONE, Method: STANDARD PLATE). In addition, the mutagenic call was “inactive; negative” (Test System: CHINESE HAMSTER V-79, Strain/Indicator: V-79/OUABAIN, Metabolic Activation: NONE, Method: STANDARD PLATE); “active; positive” (Test System: Escherichia coli, Strain/Indicator: CC107 (G6 to G7 frameshifts), Metabolic Activation: None, Method: Modified preincubation); “active; positive” (Test System: Escherichia coli, Strain/Indicator: CC108 (G6 to G5 frameshifts), Metabolic Activation: None, Method: Modified preincubation); “active; positive” (Test System: Escherichia coli, Strain/Indicator: CC109 (CG5 to CG4 frameshifts), Metabolic Activation: None, Method: Modified preincubation); “active; positive” (Test System: Escherichia coli, Strain/Indicator: CC111 (A7 to A6 frameshifts), Metabolic Activation: None, Method: Modified preincubation).

As to `COc1cc(Oc2ccc(Cl)cc2Cl)ccc1[N+](=O)[O-]`, the mutagenic call reads like this: (Test System: AMES SALMONELLA TYPHIMURIUM, Strain/Indicator: TA98, Metabolic Activation: S-9, Method: STANDARD PLATE) “inactive; negative”; under setting [1], “active; positive”; (Test System: AMES SALMONELLA TYPHIMURIUM, Strain/Indicator: TA100, Metabolic Activation: S-9, Method: STANDARD PLATE) “inactive; negative”; (Test System: AMES SALMONELLA TYPHIMURIUM, Strain/Indicator: TA100, Metabolic Activation: S-9 MIX, Method: STANDARD PLATE) “inactive; negative”; (Test System: AMES SALMONELLA TYPHIMURIUM, Strain/Indicator: YG1021, Metabolic Activation: NONE, Method: PREINCUBATION) “active; positive”; (Test System: AMES SALMONELLA TYPHIMURIUM, Strain/Indicator: YG1021, Metabolic Activation: RAT, LIVER, S-9, PCB, Method: PREINCUBATION) “active; positive”. For the same molecule, the mutagenic call by setting is: (Test System: AMES SALMONELLA TYPHIMURIUM, Strain/Indicator: YG1021, Metabolic Activation: S-9, Method: STANDARD PLATE) “inactive; negative”; (Test System: AMES SALMONELLA TYPHIMURIUM, Strain/Indicator: YG1024, Metabolic Activation: S-9, Method: STANDARD PLATE) “inactive; negative”; (Test System: AMES SALMONELLA TYPHIMURIUM, Strain/Indicator: YG1026, Metabolic Activation: NONE, Method: PREINCUBATION) “active; positive”; (Test System: AMES SALMONELLA TYPHIMURIUM, Strain/Indicator: YG1026, Metabolic Activation: RAT, LIVER, S-9, PCB, Method: PREINCUBATION) “active; positive”; (Test System: AMES SALMONELLA TYPHIMURIUM, Strain/Indicator: YG1026, Metabolic Activation: S-9, Method: STANDARD PLATE) “inactive; negative”; (Test System: AMES SALMONELLA TYPHIMURIUM, Strain/Indicator: YG1029, Metabolic Activation: S-9, Method: STANDARD PLATE) “inactive; negative”.

`NC(=O)N(c1ccccc1)c1ccc(C(=O)O)cc1`: the mutagenic call runs as follows: (Test System: AMES SALMONELLA TYPHIMURIUM, Strain/Indicator: TA98, Metabolic Activation: MAIZE SEEDLING, S-14, Method: PREINCUBATION) “active; positive”; (Test System: AMES SALMONELLA TYPHIMURIUM, Strain/Indicator: TA98, Metabolic Activation: MOUSE, LIVER, S-9, Method: PREINCUBATION) “inactive; negative”; under setting [2], “inactive; negative”; (Test System: AMES SALMONELLA TYPHIMURIUM, Strain/Indicator: TA100, Metabolic Activation: MAIZE SEEDLING, S-14, Method: PREINCUBATION) “inactive; negative”; (Test System: AMES SALMONELLA TYPHIMURIUM, Strain/Indicator: TA100, Metabolic Activation: MOUSE, LIVER, S-9, Method: PREINCUBATION) “inactive; negative”; under setting [3], “inactive; negative”. The mutagenic call by setting is: under setting [4], “inactive; negative”; (Test System: AMES SALMONELLA TYPHIMURIUM, Strain/Indicator: TA1537, Metabolic Activation: NONE, Method: PREINCUBATION) “inactive; negative”; (Test System: AMES SALMONELLA TYPHIMURIUM, Strain/Indicator: TA1538, Metabolic Activation: NONE, Method: PREINCUBATION) “inactive; negative”.

Regarding `CCCCCN(CCCCC)N=O`, the mutagenic call by setting is: (Test System: AMES SALMONELLA TYPHIMURIUM, Strain/Indicator: TA100, Metabolic Activation: RAT, LIVER, S-9, KC500 OR PHENOBARBITAL, Method: LIQUID SUSPENSION) “active; positive”; (Test System: AMES SALMONELLA TYPHIMURIUM, Strain/Indicator: TA1530, Metabolic Activation: RAT, LIVER, S-9, Method: STANDARD PLATE) “active; positive”; (Test System: CHINESE HAMSTER V-79, Strain/Indicator: V-79/8-AZAGUANINE, Metabolic Activation: CELL-MEDIATED, Method: STANDARD PLATE) “active; positive”.

On to `Clc1ccc2ccccc2c1`, for which the mutagenic call is “inactive; negative” (Test System: AMES SALMONELLA TYPHIMURIUM, Strain/Indicator: TA97, Metabolic Activation: HAMSTER, LIVER, S-9, AROCLOR 1254 (10 OR 30%), Method: PREINCUBATION); “inactive; negative” (Test System: AMES SALMONELLA TYPHIMURIUM, Strain/Indicator: TA97, Metabolic Activation: NONE, Method: PREINCUBATION); “inactive; negative” (Test System: AMES SALMONELLA TYPHIMURIUM, Strain/Indicator: TA97, Metabolic Activation: RAT, LIVER, S-9, AROCLOR 1254 (10 OR 30%), Method: PREINCUBATION); “inactive; negative” (Test System: AMES SALMONELLA TYPHIMURIUM, Strain/Indicator: TA98, Metabolic Activation: HAMSTER, LIVER, S-9, AROCLOR 1254 (10%), Method: PREINCUBATION); “inactive; negative” (Test System: AMES SALMONELLA TYPHIMURIUM, Strain/Indicator: TA98, Metabolic Activation: HAMSTER, LIVER, S-9, AROCLOR 1254 (30%), Method: PREINCUBATION); “inactive; negative” under setting [2]. Further, the mutagenic call is “inactive; negative” (Test System: AMES SALMONELLA TYPHIMURIUM, Strain/Indicator: TA98, Metabolic Activation: RAT, LIVER, S-9, AROCLOR 1254 (10 OR 30%), Method: PREINCUBATION); “inactive; negative” (Test System: AMES SALMONELLA TYPHIMURIUM, Strain/Indicator: TA100, Metabolic Activation: HAMSTER, LIVER, S-9, AROCLOR 1254 (10 OR 30%), Method: PREINCUBATION); “inactive; negative” under setting [3]; “inactive; negative” (Test System: AMES SALMONELLA TYPHIMURIUM, Strain/Indicator: TA100, Metabolic Activation: RAT, LIVER, S-9, AROCLOR 1254 (10 OR 30%), Method: PREINCUBATION); “inactive; negative” (Test System: AMES SALMONELLA TYPHIMURIUM, Strain/Indicator: TA1535, Metabolic Activation: HAMSTER, LIVER, S-9, AROCLOR 1254 (10 OR 30%), Method: PREINCUBATION); “inactive; negative” under setting [4]. The mutagenic call (Test System: AMES SALMONELLA TYPHIMURIUM, Strain/Indicator: TA1535, Metabolic Activation: RAT, LIVER, S-9, AROCLOR 1254 (10 OR 30%), Method: PREINCUBATION) is “inactive; negative”.
